# From patent US20140004209A1, “AUTOPHAGY INDUCER AND INHIBITOR COMBINATION THERAPY FOR THE TREATMENT OF NEOPLASMS” (GENENTECH, INC., priority 2010, published 2014)
# Experiments:
# [1] = tested on: PTEN−/− and PTEN+/+ MEFs; experiment: Viability of PTEN−/− and PTEN+/+ MEFs (PI exclusion); type: cell-based, mouse; settings: 5 μM each, 1% FBS
# Method: MEFs were treated with 5 μM each of II-4 and CQ under 1% FBS, and cell viability was determined at days 0, 2, and 3 by PI exclusion. Error bars represent SEM (n=3). (B) Mean tumor volumes of PC3 xenograft tumors treated daily with vehicle (Veh), Dox only, CQ only, or both Dox and CQ over a 28-d period. The vehicle and vehicle+CQ groups were followed for up to 18 d before terminated because of weight loss from the tumor burdens. Error bars represent SEM (n=10 tumors in each cohort). (C) Scatterplot of the tumor volumes in the Dox only and Dox+CQ groups on day 28 (P=0.05). Horizontal bars indicate mean tumor volumes. Numbers of tumors with complete remission (CR, dashed line) are indicated for each group. […]
# Cell viability and cell cycle analysis. Cell number and viability was measured using trypan blue exclusion assay using a Vi-Cell Analyzer (Beckman Coulter), or labeled with 1 μg/ml PI in PBS/1% BSA followed by cytofluorometric analysis with a fluorescence-activated cell sorter (FACS) (Becton Dickinson). […] Caspase activation was analyzed using a Caspase-Glo 3/7 Assay kit (Promega). For cell cycle analysis, cells were fixed with drop-wise addition of chilled 70% ethanol, washed with PBS and resuspended in staining solution containing 50 μg/ml PI and 60 units of RNAse A. DNA content was analyzed by flow cytometry using the FlowJo and ModFit software (Becton Dickinson).
# [2] = tested on: PC3 cells; experiment: Mitochondrial membrane potential (MitoPT dye) in PC3 cells; type: cell-based, human; settings: for mitochondrial membrane potential, II-4 (Akti-1/2) and CQ: 3 μM Akti-1/2, 10 μM CQ
# Method: FIG. 21. […] Images at 48 h are shown. […] Merged images between red and green channels are also shown (MitoPT-M). Scale bar: 20 μm. (B) Percentage of cells showing red punctate stains and diffuse green stains from treatments described in (A). >86 cells from two random fields of fluorescent images of each treatment were counted. Error bars represent standard deviations between the two fields. […] Total fluorescence intensity from all cells was collected using the Isocyte (Blueshift Biotechnologies), a laser scanning imager. Green fluorescence intensity is collected with a 488 nm laser and a 510-540 nm band pass filter, and normalized to cell number determined by Hoechst staining using a 405 nm laser and a 430-480 nm band pass filter. Error bars, standard deviation between two independent experiments. (D) Representative images of the green ROS signals and bright field (BF) taken under a Nikon TE300 inverted microscope. […] Scale bar: 20 μm.
# Cell Culture and Reagents: The PTEN^−/− and PTEN^+/+ MEFs were maintained as previously described (Sun, H., R. Lesche, D. M. Li, J. Liliental, H. Zhang, J. Gao, N. Gavrilova, B. Mueller, X. Liu, and H. Wu, (1999), PTEN modulates cell cycle progression and cell survival by regulating phosphatidylinositol 3,4,5,-trisphosphate and Akt/protein kinase B signaling pathway. Proc Natl Acad Sci USA. 96:6199-204). The PC3 and U87MG cells were maintained at 37° C. and 5% CO2 in DMEM/Ham's F-12 (1:1) containing 10% tetracycline-free fetal bovine serum. II-4 was from Calbiochem (Akt inhibitor VIII) (Barnett, S. F., D. Defeo-Jones, S. Fu, P. J. Hancock, K. M. Haskell, R. E. Jones, J. A. Kahana, A. M. Kral, K. Leander, L. L. Lee, J. Malinowski, E. M. McAvoy, D. D. Nahas, R. G. Robinson, and H. E. Huber, (2005), Identification and characterization of pleckstrin-homology-domain-dependent and isoenzyme-specific Akt inhibitors. Biochem J. 385:399-408). […] Image-iT LIVE Green Reactive Oxygen Species Detection Kit was purchased from Molecular Probes. MitoPT Mitochondria Permeability Transition Detection Kit was purchased from Immunochemistry Technologies, LLC.
# [3] = tested on: Akt; experiment: Immunoblot of Akt and S6 phosphorylation in PC3 cells; type: cell-based, human; settings: II-4 alone
# Text: Western blot analysis, immunofluorescence, 1HC and TUNEL assay: For Western blot analysis, total protein lysates were subjected to SDS-PAGE and transferred to nitrocellulose. Antibodies used were: anti-Akt1, anti-Akt2, anti-Akt3, anti-total-Akt, anti-p-Akt (Ser473), anti-p-Akt (Thr308), anti-p-S6 (Ser235/236), anti-PARP and anti-cleaved caspase-3 (Cell Signaling Technology); anti-p-PRAS40 (Invitrogen); anti-p27^Kip1 (Santa Cruz Biotechnology); anti-LC3 (Novus); anti-LAMP2 and anti-Cathepsin D (BD Biosciences); and anti-GAPDH (Advanced Immunochemical Inc.). Primary antibodies were detected using IR Dye 800-conjugated (Rockland) and Alexa-Fluoro 680-conjugated (Molecular Probes) species-selective secondary antibodies. Detection and quantification were performed using an Odyssey infrared scanner (LICOR) using the manufacturer's software. For immunofluorescence staining, cells were fixed in 3% paraformaldehyde and permeabilized with 0.01% digitonin in PBS, followed by a rabbit polyclonal anti-LC3 (Abgent) primary antibody detected with a cy3-conjugated anti-rabbit secondary antibody (Jackson Immunoresearch). For IHC, formalin-fixed, paraffin-embedded specimens were collected. 5-μm-thick paraffin-embedded sections were stained using an anti-Ki-67 (MIB-1, DakoCytomation) antibody with the Dako ARK kit (Dako Corporation). Tissues were counterstained with haematoxylin, dehydrated, and mounted. In all cases, antigen retrieval was performed with the Dako Target Retrieval Kit as per manufacturer's instructions. For TUNEL assay, formalin-fixed, paraffin-embedded sections were stained using an in situ cell death detection kit (POD; Roche Diagnostic) according to the manufacturer's instructions.
# [4] = tested on: PC3 cells; experiment: Microarray analysis of autophagy gene expression in PC3 cells; type: cell-based, human; settings: 1 or 5 μM for 6 or 24 hours, normalized to DMSO
# Method: PC3 cells were induced to express shRNA to indicated Akt isoforms for 72 hours by Doxycycline, RNA was extracted from both Dox treated (Dox+) or untreated control (Dox−) cells. Microarray analysis was carried out using Affymetrix chips. Ratios of the expression levels of each autophagy gene from Dox+ and Dox− samples are shown. Data are mean values from 3 independent experiments.
# RNA was extracted from the cells. Microarray analysis was carried out using Affymetrix chips. Expression levels of each autophagy gene are normalized to the DMSO controls. Data are mean values from 3 independent experiments.
compound,measurement,setting,value
"O=c1[nH]c2ccccc2n1C1CCN(Cc2ccc(-c3nc4cc5nc[nH]c5cc4nc3-c3ccccc3)cc2)CC1 [II-4, 1-(1-(4-(7-phenyl-1H-imidazo[4,5-g]quinoxalin-6-yl)benzyl)piperidin-4-yl)-1H-benzo[d]imidazol-2 (3H)-one]",sensitivity of PTEN−/− vs PTEN+/+ MEFs to combined II-4 and CQ,[1],significantly more sensitive
same,"mitochondrial membrane potential, II-4 (Akti-1/2) and CQ",[2],almost complete loss of mitochondrial potential
same,"mitochondrial membrane potential, II-4 (Akti-1/2) and CQ",[2]; listed as Akti-1/2,CQ enhanced Akti-1/2-induced mitochondria depolarization
same,"mitochondrial membrane potential, agent alone",[2]; 0.5% FBS,caused a decrease in mitochondrial membrane potential
same,phosphorylation of Akt on Ser473 and Thr308,[3],effectively inhibited the phosphorylation of Akt on both Ser473 and Thr308 residues
same,phosphorylation of downstream target S6,[3],significantly reduced the phosphorylation of downstream target S6
same,autophagy gene expression,[4],induce autophagy gene expression
